Assay [1] is described as follows: Salt spray test DIN 50 021 SS, 168 hours, of acrylic dispersion coating (Maincote HG-54) with corrosion inhibitor; corrosion protection factor CPF. Conditions: salt spray 168 hours, coat thickness 50 to 55 μm; for CPF film / CPF metal: 1% inhibitor on overall solids content, maximum 6 points, greater = better; for CPF: 1% inhibitor, sum of film and metal, maximum 12 points. On the procedure: (§1) In order to prepare the coating formulation (acrylic dispersion based on Maincote HG-54), components 1 to 8 (formulation without amine salt) and components 1 to 9 (formulation comprising an amine salt) are employed in the sequence stated (see Table 1).
(§2) Components 1 to 8 or 1 to 9 are dispersed using a high-speed stirrer at 3000 revolutions/minute to a degree of ground fineness or ground particulate nature of <15 μm. The outcome of dispersing the pigment paste thus obtained is assessed by determining the grindometer value (ISO 1524).The amount of the novel salts employed is based on the overall solids content of the formulation without salt (overall solids content 47%). Accordingly, an addition of, say, 1.0% of amine salt to 100 g of dispersion denotes, for example, an amount of 0.47 g. To complete the coating formulation, components 10 to 16 of Table 1 are added at a reduced stirring speed (1000 revolutions/minute) in the stated sequence. Subsequently, the pH of the formulation is checked and, if appropriate, is adjusted prior to application to a value of from 8 to 8.5 using ammonia solution (25% strength).
(§3) The coating formulations are applied to steel panels (19×10.5 cm) of the Bonder type (cold-rolled degreased steel; manufactured by Chemetall, Frankfurt am Main/Germany) in a coat thickness which after drying amounts to 50-55 μm. Drying conditions: 10 days at room temperature.
(§4) Prior to the beginning of weathering, the “coating films” undergo defined damage in the form of a parallel cut (i.e. parallel to the longest panel edge) using a Bonder cross-cut instrument (Mod. 205; manufactured and sold by Lau, 5870 Hemer/Germany). The panel edges are protected by applying an edge protector (Icosit® 255; manufactured by Inertol AG, Winterthur/Switzerland).
(§5) The samples are subsequently subjected to accelerated weathering in a salt spray test in accordance with DIN 50 021 SS for 168 hours (Table 2) or to a humidity test in accordance with ASTM D 4585-87 for 330 hours (Table 3). The assessment of the results is based on the relevant DIN standards in accordance with an evaluation key, by the indication of a corrosion protection value CPF (Corrosion Protection Factor). The CPF is an additive term composed of an assessment of the coating (film) and an assessment of visible underfilm corrosion and appearance of the metal surface, and has a maximum of 12 points. The individual maximum values are 6 points each. The greater the CPF, the better the protection against corrosion.

The nature of assay [2]: Subfilm migration in the wet state (cathodic delamination) along the artificial damage, DIN 53 167, after the salt spray test. Conditions: 1% inhibitor; after salt spray 168 hours; coat thickness 50 to 55 μm; lesser = more effective.
Description: as §3, §4
(§6) As additional assessment criteria, the “subfilm migration in the wet state” (cathodic delamination) along the artificial damage side is determined, after the end of the salt spray test, in accordance with DIN 53 167. […] After the end of the humidity test, the wet adhesion of the coating formulation is determined in accordance with DIN 53 151 by making a crosshatch cut followed by the tape tearoff test. According to DIN 53 151 (scale from Gt 0 to Gt 5) a crosshatch value of Gt 0 corresponds to completely intact adhesion of the coating film, whereas Gt 5 corresponds to inadequate adhesion.

Assay [3] can be described thus: Humidity test ASTM D 4585-87, 330 hours, of acrylic dispersion coating (Maincote HG-54) with corrosion inhibitor; corrosion protection factor CPF. Conditions: humidity test 330 hours, coat thickness 45 to 50 μm; for CPF film / CPF metal: maximum 6 points, greater = better; for CPF: sum of film and metal, maximum 12 points. On the procedure: as §1, §2
[…] Drying conditions: 10 days at room temperature.
as §4, §5

Assay [4] is described as follows: Wet adhesion of the coating formulation, DIN 53 151 crosshatch cut and tape tearoff test, after the humidity test. Conditions: after humidity test 330 hours, scale Gt 0 (completely intact adhesion) to Gt 5 (inadequate adhesion). On the procedure: as §3, §6
Setting [5] is: 1% inhibitor on overall solids content.
Setting [6] is: 2% inhibitor on overall solids content.

Each structure is given as a SMILES string.

On to `CCCCCCN(CP(=O)(O)O)CP(=O)(O)O.CCN1CCOCC1.CCN1CCOCC1` [Example 10, n-Hexylaminobismethylenephosphonic Acid, Salt with Two Equivalents of N-ethylmorpholine], for which the CPF film in assay [1] was determined as 4.6; in assay [3] (setting [5]) it was 4.0; in assay [3] (setting [6]), 4.4. In addition, the CPF metal turned out to be 5.4 in assay [1], 3.8 in assay [3] (setting [5]) and 6.0 in assay [3] (setting [6]). Besides, the CPF in assay [1] amounted to 10.0; in assay [3] (1% inhibitor) it was 7.8; in assay [3] (2% inhibitor), 10.4. The “Cathodic delamination (mm total)” value in assay [2] is given as 24 mm. For the same compound, the “Wet adhesion (Gt value)” value in assay [4] (1% inhibitor) and in assay [4] (2% inhibitor) was 0 Gt each time.
With `CCCCCCCCCCCCN(CP(=O)(O)O)CP(=O)(O)O.OCCN(CCO)CCO.OCCN(CCO)CCO` [Example 16, n-Dodecylaminobismethylenephosphonic Acid, Salt with Two Equivalents of Triethanolamine], in assay [1], the CPF film stood at 4.8, the CPF metal is reported as 4.4 and the CPF came out at 9.2. Besides, the “Cathodic delamination (mm total)” value in assay [2] stood at 16 mm. In assay [3] (setting [6]), this compound returned a CPF film of 4.8 and a CPF metal of 3.6. The compound also had a CPF in assay [3] (2% inhibitor) of 8.4. In assay [4] (2% inhibitor), the “Wet adhesion (Gt value)” value was determined as 0 Gt.

The record behind these values is patent publication US6403826B1, “Corrosion-inhibiting coating composition for metals” (Ciba Specialty Chemicals Corporation, priority 1996, dated 2002).
